# From US20080248008A1, “Inhibitors of Protein Kinase a Anchoring” (priority 2004, published 2008)
# How the values were obtained:
# [1] = target: T1, RI in lipid rafts of Jurkat T cells (Homo sapiens, UniProt P10644); assay: PKA content of lipid rafts from transfected Jurkat T cells (densitometry); assay type: cell-based; conditions: n=1
# T1 construct: endogenous in cells; host or cells: Jurkat T cells
# Protocol: Densitometric analysis. The densitometric analysis was performed using Scion Image (www.scioncorp.com) (Scion Coorperation, Mo., USA) or Quantity One version 4.5.0, (BioRad).
# Cell cultures and transient transfections. The human leukemic T cell line Jurkat (clone E6.1), Jurkat TAg, a derivative of the Jurkat cell line stably transfected with the SV40 large T antigen (Clipstone, N. A., and Crabtree, G. R., 1992, Nature. 357:695-697) was cultured at 37° C. in RPMI medium (Gibco BRL) supplemented with 10% fetal calf serum, 2 mM glutamine, penicillin, streptomycin, 1 mM sodium pyruvate and nonessential amino acids. For transfections, cells (5×10^6) in 0.4 ml Opti-MEM were mixed with 40 μg of each DNA construct (GFP-MEME3 or GFP-Scrambled MEME3) in electroporation cuvettes with a 0.4-cm electrode gap (BioRad Laboratories) and subjected to an electric field of 250 V/cm with 960 μF capacitance. A total of 2×10^7 cells were transfected per DNA construct. The cells were expanded in complete medium and harvested after 20 h. The transfection efficiency was determined by microscopic analysis.
# Immunoblot analysis. Immunocomplexes and lipid raft fractions were analysed on a 10, 15% or 4-20% PAGE and blotted onto PVDF membranes. […]
# Lipid Raft Purification. […] The fractions were analysed by immunoblot analysis. […]
# [2] = target: T2, RIα (Bos taurus, UniProt P00514); assay: Fluorescence polarization, dissociation constant for RI; assay type: binding, bovine; conditions: qualitative
# T2 construct: made in house; host or cells: E. coli BL21 (B121 [sic])
# Protocol: Fluorescence Polarization. FITC-labeled peptides (SynPep, San Diego) that were used for fluorescence polarization studies included MEME3 (LEQYANQLADQIIKEATEK(5-Carboxyfluorescein)-CONH2) and MEME3 scrambled peptide (IEKELAQQYQNADAITLEK(5-Carboxyfluorescein)-CONH2). Peptides (0.5 nM for RI experiments and 1 nM for RII experiments) were suspended to working dilutions in phosphate-buffered saline containing 5 μg/μl BSA, pH 7.0. Increasing concentrations of recombinant bovine RI wt or recombinant murine RII were added to a PBS solution and mixed with each FITC-labeled peptide. Each sample was incubated for 2.5 hours. Fluorescence polarization was measured on a Beacon 2000 (Panvera, Madison, Wis.), following the manufacturer's instructions. Saturation binding curves were generated with PRISM graphing software (GraphPad, San Diego). Dissociation constants (Kd) were calculated from the nonlinear regression curve from averages of minimum three individual experiments.
# Protein expression and purification. Human RI, Bovine RI and N-terminal deletions thereof or murine RII was expressed in E. coli B121 by IPTG induction. The RI containing pellet was incubated in lysis buffer (10 mM MOPS, pH 6.5, 100 mM NaCl, 10 μM DTT added protease inhibitors) and sonicated (Branson Sonifier 250) for 1 minute in three intervals at 0° C. […]
# [3] = target: PKA-RIIα (Homo sapiens, UniProt P13861); assay: Displacement of PKA-RII from the particulate fraction in T cells; assay type: cell-based; parameters: endogenous in cells; host or cells: human peripheral blood CD3+ T cells; conditions: increasing concentrations, relative to PKCα
# Protocol: Displacement of PKA-RII from the particulate Fraction in T-cells. Negatively selected CD3^+ T-cells (20×10^6/3 ml/well) were cultured in 6-well plates with 0-50 μM Arg11-SuperAKAPIS (or 0-50 μM M3-Arg11) for 12 hours. Cells were lysed in 250 μl lysis buffer (50 mM Tris pH 7.4, 100 mM NaCl, 5 mM EDTA, 50 mM NaF, 10 mM Na-pyrofosfat, 1 mM Na3VO4, 1 mM PMSF, 0.7% triton X-100) and centrifuged at 14 000×g for 10 min. The sedimented proteins were resuspended in loading dye before being resolved by SDS/PAGE and detected by immunoblotting.
# To assess the effect of MEME3-Arg11 on anchoring of PKA type II, T cells were treated with MEME3-Arg11 or Arg11-super-AKAP-is (as a positive control) and particulate fractions were isolated, followed by 10% PAGE and blotting onto a PVDF membrane (fraction no. 2-4, FIG. 17 in upper panel) and analysed by immunoblotting using antibodies against PKA-RIIα (FIG. 17, upper panel). The levels of PKA-RIIα in the particulate fractions were measured by densitometry of the autoradiograms (lower panel). The level of PKA-RIIα was set relative to that of the internal standard PKCα.
# T2 sequence (P00514 whole entry): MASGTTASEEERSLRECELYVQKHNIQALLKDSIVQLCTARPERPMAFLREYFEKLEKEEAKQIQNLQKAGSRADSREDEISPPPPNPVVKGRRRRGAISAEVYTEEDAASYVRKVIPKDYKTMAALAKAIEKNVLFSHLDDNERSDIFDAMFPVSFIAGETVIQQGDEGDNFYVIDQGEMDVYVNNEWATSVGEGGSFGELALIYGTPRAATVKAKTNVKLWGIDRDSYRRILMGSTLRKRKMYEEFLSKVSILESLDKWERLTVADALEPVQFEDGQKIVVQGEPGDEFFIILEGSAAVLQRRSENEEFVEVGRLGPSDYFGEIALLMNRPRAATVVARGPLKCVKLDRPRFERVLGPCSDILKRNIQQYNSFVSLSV
# Sequence of PKA-RIIα (P13861 whole entry): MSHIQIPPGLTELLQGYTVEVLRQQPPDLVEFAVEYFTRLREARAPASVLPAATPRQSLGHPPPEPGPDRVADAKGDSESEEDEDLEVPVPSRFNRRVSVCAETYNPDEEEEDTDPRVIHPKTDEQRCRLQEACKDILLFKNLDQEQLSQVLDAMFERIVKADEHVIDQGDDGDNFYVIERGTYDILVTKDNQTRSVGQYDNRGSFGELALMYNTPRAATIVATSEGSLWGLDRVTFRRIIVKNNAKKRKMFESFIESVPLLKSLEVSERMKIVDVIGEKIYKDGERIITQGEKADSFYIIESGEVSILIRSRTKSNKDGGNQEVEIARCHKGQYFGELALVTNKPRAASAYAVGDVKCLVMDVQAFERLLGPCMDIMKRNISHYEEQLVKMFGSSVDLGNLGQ
compound,measurement,setting,value
CC[C@H](C)[C@H](NC(=O)[C@H](CCC(N)=O)NC(=O)[C@H](CC(=O)O)NC(=O)[C@H](C)NC(=O)[C@H](CC(C)C)NC(=O)[C@H](CCC(N)=O)NC(=O)[C@H](CC(N)=O)NC(=O)[C@H](C)NC(=O)[C@H](Cc1ccc(O)cc1)NC(=O)[C@H](CCC(N)=O)NC(=O)[C@H](CCC(=O)O)NC(=O)[C@@H](N)CC(C)C)C(=O)N[C@H](C(=O)N[C@@H](CCCCN)C(=O)N[C@@H](CCC(=O)O)C(=O)N[C@@H](C)C(=O)N[C@H](C(=O)N[C@@H](CCC(=O)O)C(=O)N[C@@H](CCCCNC(=O)c1ccc2c(c1)C(=O)OC21c2ccc(O)cc2Oc2cc(O)ccc21)C(N)=O)[C@@H](C)O)[C@@H](C)CC [MEME3],reduction of RI concentration in lipid rafts compared to SM3,[1],40%
"IEKELAQQYQNADAITLE [SM3, scrambled MEME3 negative control peptide, reference compound]",interaction with RI subunit,[2],No RIα binding
same,interaction with RI subunit,[2]; listed as control peptide,did not interact with either R subunit
LEQYANQLADQIIKEATERRRRRRRRRrr [MEME3-Arg11],PKA-RIIα in particulate fraction,[3],No reduction in PKA-RIIα
